One experiment has as its system A2780/RCIS. Put plainly: MTT antiproliferative activity assay. The format is cell-based. Particulars: Homo sapiens, A2780; MTT, 48 hr; read-out: IC50 A2780/RCIS. The protocol:
(§1) The MTT assay was done by seeding 5.0×10^3 human cancer cells or normal cells per well in 96-well plates ([34]-[36]). Following overnight incubation of the cells in 5% CO2 at 37 °C, culture medium of each well was exchanged with medium having reference anti-cancer agent CA-4 as well as different concentrations of synthesized compounds and RPMI (no drug) negative control and cells were incubated 48 hr. Then MTT solution (25 μl, 4 mg ml ^-1) was added to each well and the cells were incubated at 37 °C (for 3 hr). Finally, formazan crystals were dissolved in DMSO (100 μl) and plates were read in a plate reader (Synergy H4, USA) at 540 nm. The cytotoxic activity of the synthesized compounds was evaluated against different human cancer cell lines including […]-7 and MCF-7/MX, and normal cells by MTT assay. Combretastatin A-4 (CA-4) was used as the positive control.
On the technique in general: Tetrazolium dyes change colour on reduction, which living cells bring about.

The subject of a further experiment is A2780. Put plainly: MTT antiproliferative activity assay. The format is cell-based. Particulars: Homo sapiens, 48 hr. The protocol:
as §1

The test system of another experiment is MCF-7/MX. Put plainly: MTT antiproliferative activity assay. The conditions noted are these: Homo sapiens, MCF7/MX; MTT, 48 hr; read-out: IC50 MCF-7/MX. The format is cell-based. The protocol: as §1
The test system of the next experiment is MCF-7. Put plainly: MTT antiproliferative activity assay. Format: cell-based. The conditions noted are these: Homo sapiens, MCF7, 48 hr. The protocol: as §1
The next experiment relates to HUVEC. The experiment in a line: MTT assay on normal cells. The format is cell-based. The conditions noted are these: Homo sapiens, 48 hr. The protocol:
as §1

In experiment [1] the test system is A2780, A2780/RCIS, MCF-7 and MCF-7/MX. Put plainly: MTT assay, statements over all four cancer cell lines. The format is cell-based. Particulars: Homo sapiens, range over four cell lines, read-out: IC50 values range against all four human cancer cells. The protocol:
as §1

In another experiment the target is T1, tubulin (Sus scrofa, UniProt P02550+P02554).
T1 construct: purchased cytoskeleton BK011P
T1 sequence (P02550 whole entry): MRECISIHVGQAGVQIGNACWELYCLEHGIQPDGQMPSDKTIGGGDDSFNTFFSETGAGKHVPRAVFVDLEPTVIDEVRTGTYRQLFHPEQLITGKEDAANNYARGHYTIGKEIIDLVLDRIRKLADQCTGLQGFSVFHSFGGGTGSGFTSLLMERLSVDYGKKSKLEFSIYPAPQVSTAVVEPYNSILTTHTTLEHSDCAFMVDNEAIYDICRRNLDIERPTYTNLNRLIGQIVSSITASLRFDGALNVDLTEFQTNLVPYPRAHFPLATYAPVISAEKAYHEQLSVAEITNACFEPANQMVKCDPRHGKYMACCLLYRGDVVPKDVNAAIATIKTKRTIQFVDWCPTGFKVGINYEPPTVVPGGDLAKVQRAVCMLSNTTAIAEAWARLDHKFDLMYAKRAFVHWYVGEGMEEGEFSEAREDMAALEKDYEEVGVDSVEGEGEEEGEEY
T1 sequence (P02554 whole entry): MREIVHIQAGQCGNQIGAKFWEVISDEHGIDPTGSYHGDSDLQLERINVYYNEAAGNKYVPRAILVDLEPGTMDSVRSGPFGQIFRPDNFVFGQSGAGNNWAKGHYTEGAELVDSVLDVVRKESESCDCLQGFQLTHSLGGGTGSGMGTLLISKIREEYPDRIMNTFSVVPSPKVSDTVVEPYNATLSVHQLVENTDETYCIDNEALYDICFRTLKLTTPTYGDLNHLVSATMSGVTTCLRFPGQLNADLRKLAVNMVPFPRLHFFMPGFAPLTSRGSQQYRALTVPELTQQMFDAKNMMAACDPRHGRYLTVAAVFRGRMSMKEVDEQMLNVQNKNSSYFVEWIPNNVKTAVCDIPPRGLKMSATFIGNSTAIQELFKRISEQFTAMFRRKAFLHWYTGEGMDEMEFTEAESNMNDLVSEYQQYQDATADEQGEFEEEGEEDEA
The experiment in a line: In vitro tubulin polymerization assay (fluorescence kit). The format is biochemical. Particulars: compound 20 µM; CA-4 5 µM. The protocol:
A commercial kit (cytoskeleton, cat. #BK011P) was used to evaluate the tubulin polymerization inhibition activity of compounds ([37]). Briefly, tubulin protein was added to tubulin buffer (80 mM PIPES, 2 mM MgCl2, 0.5 mM EGTA, 1 mM GTP, […], PH 6.9) and the acquired mixture was added to wells of a 96-well plate comprising the cytotoxic compounds or vehicle. Tubulin polymerization was observed by detecting the fluorescence augmentation due to the addition of a fluorescence reporter into microtubules as polymerization occurred. Polymerization was measured by excitation at 360 nm and emission at 420 nm for 1 hr at 1 min intervals in a plate reader (Synergy H4, USA). CA-4 (5 μM) and paclitaxel (3 μM) were used as positive destabilizing and positive stabilizing controls, respectively.
In order to check if the cytotoxic activity of our quinolines was correlated to their ability to inhibit tubulin, compounds 7e and 7f and CA4 (polymerization suppressor) and paclitaxel (polymerization promoter) were assessed for their activity in a microtubule polymerization assay.

Another experiment has as its system A2780 cancer cells. The experiment in a line: Cell cycle analysis by flow cytometry (PI). Format: cell-based, human. The conditions noted are these: 48 hr. The source says:
(§2) Flow cytometry with propidium iodide (PI) was used to analyze the cell numbers in the cell cycle phases. […] Flowjo software 7.6 was used to analyze the data regarding the cell numbers in different phases of the cell cycle.
(§3) Tubulin inhibitors arrest cell cycle at the G2/M phase in cancer cells owing to destruction of the microtubular cytoskeleton. To get more understanding of the mechanism of action, the effects of compounds 7f and 7e on the cell cycle were examined by ﬂow cytometry in four human cancer cell lines (MCF-7, MCF-7/MX, A2780, and A2780/RCIS). […] When A2780 cancer cells were treated with 7f and 7e for 48 hr, the percentage of cells in the G2/M phase was 15.70% (7f, 1 μM), 17.74% (7f, 10 μM), 23.30% (7e, 5μM), and 4.15% (7e, 15μM) compared with the negative control (4.84%). Moreover, the percentage of A2780 cancer cells in the subG1 phase was 18.58% (7f, 10 μM) and 68.16% (7e, 15 μM).
For orientation: Flow cytometry measures light scatter and fluorescence of single cells or particles in a stream.

Another experiment concerns A2780/RCIS cancer cells. The experiment in a line: Cell cycle analysis by flow cytometry (PI). The format is cell-based, human. The conditions noted are these: 48 hr.
Excerpt: as §2, §3

A further experiment has as its system MCF-7 cancer cells. Put plainly: Cell cycle analysis by flow cytometry (PI). The conditions noted are these: 48 hr. The format is cell-based, human.
Excerpt: as §2, §3

Another experiment deals with MCF-7/MX cancer cells. The experiment in a line: Cell cycle analysis by flow cytometry (PI). The format is cell-based, human. Particulars: 48 hr.
Excerpt: as §2, §3

The next experiment deals with A2780 cells. The experiment in a line: Apoptosis assay (Annexin V/PI staining). Format: cell-based, human. Particulars: 24 hr. The protocol: A2780 cells ([…]) were seeded in six-well plates and incubated overnight. Then the medium was replaced with a complete medium containing compound 7e (3 and 15 µM concentrations). After 24 hr incubation, the cells were […] and washed with PBS and incubated with buffer including 10 mM HEPES, 140 mM NaCl, and 2.5 mM CaCl2 (pH 7.4) and also PI and annexin V-FITC at room temperature (20 min) ([38]). The samples were analyzed using a flow cytometer (Beckman Coulter), and the results were assessed using the Flowjo software.
Then, to investigate the mode of cell death caused by 7e, flow cytometry was done using propidium iodide (PI) ([19]), which only colors DNA and only enter dead cells, and Annexin-V (the fluorescence probe), which binds to the early apoptotic cells selectively ([20]).

Regarding `COc1cc2nc(C)cc(Nc3ccc(C(=O)c4ccccc4)cc3)c2c(OC)c1OC` [Compound 7e], the IC50 with A2780/RCIS was 6.66 ± 1.35 µM; with A2780, 11.3 ± 1.47 µM; with MCF-7/MX, 10.9 ± 1.28 µM; in the experiment with MCF-7, 33 ± 2.51 µM; with HUVEC, greater than 100 µM; in experiment [1] it was 5.02 to 35.8 µM. The “tubulin polymerization inhibition” value at tubulin is “inhibited tubulin polymerization in a way similar to that of CA-4”. The G2/M in the experiment on A2780 cancer cells (A2780, 5 μM) is reported as 23.30%; in the experiment with A2780 cancer cells (A2780, 15 μM), 4.15%; in the experiment on A2780/RCIS cancer cells (1 μM), 24.91%; in the experiment on A2780/RCIS cancer cells (5 μM) it was 25.93%; with MCF-7 cancer cells (MCF-7, 20 μM), 25.91%; with MCF-7 cancer cells (MCF-7, 30 μM) it was 34.45%. The G2/M in the experiment with MCF-7/MX cancer cells (1 μM) stood at 25.41%; in the experiment on MCF-7/MX cancer cells (10 μM), 37.85%. For the same molecule, the SubG1 in the experiment with A2780 cancer cells (A2780, 15 μM) was 68.16%. The “total apoptotic cells including early and late apoptotic cells” value in the experiment on A2780 cells (A2780, 3 µM) was found to be 8.02%; in the experiment with A2780 cells (A2780, 15 µM), 28.57%.

Values taken from article PMC7811808, “Design, synthesis, and biological evaluation of novel 5,6,7-trimethoxy quinolines as potential anticancer agents and tubulin polymerization inhibitors” (Iranian Journal of Basic Medical Sciences, 2020).
